Values quoted from earlier work, collected in article PMC8240349 (Journal of Traditional and Complementary Medicine, 2021).

Tested on: CCA
Details: bioassay-guided activity; cited from earlier work

C=C1CCC[C@]2(C)CC[C@@H](C(C)(C)O)C[C@@H]12 [β-eudesmol]
IC50, anti-CCA activity: 20 to 25 µg/mL
